Assay results as given in article PMC7449411, “In silico discovery and biological validation of ligands of FAD synthase, a promising new antimicrobial target” (PLoS Computational Biology, 2020).
≈ marks a conversion by molar mass, not a printed value.

How the values were obtained:
FMNAT activity of CaFADS = target: T1, FMNAT activity of CaFADS (Corynebacterium ammoniagenes, UniProt Q59263); assay: Inhibition of the FMNAT activity of CaFADS; assay type: biochemical; conditions: 25 °C; for FMNAT % Res. act. 250 μM: residual activity at 250 μM of compound; for IC50: kinetic measurements, 5 μM FMN, 50 μM ATP, 20 mM PIPES pH 7.0, 10 mM MgCl2, 2% DMSO
T1 construct: made in house; host or cells: Escherichia coli BL21(DE3)
T1 sequence (Q59263 whole entry): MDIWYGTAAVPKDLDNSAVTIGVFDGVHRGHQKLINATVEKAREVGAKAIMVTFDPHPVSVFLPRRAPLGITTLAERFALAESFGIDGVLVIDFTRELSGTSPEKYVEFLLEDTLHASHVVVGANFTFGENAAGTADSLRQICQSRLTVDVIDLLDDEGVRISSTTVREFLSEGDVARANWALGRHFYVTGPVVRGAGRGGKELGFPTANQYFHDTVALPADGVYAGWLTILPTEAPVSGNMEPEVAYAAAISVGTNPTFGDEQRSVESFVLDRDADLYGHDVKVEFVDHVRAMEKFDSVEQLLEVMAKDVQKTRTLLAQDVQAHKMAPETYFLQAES
Description: (§1) To determine the compound’s ability to inhibit the RFK and/or the FMNAT activities of CaFADS, both enzymatic activities were quantitatively measured in the absence and presence of the compounds following previously described protocols. Reaction mixtures contained 50 μM ATP, 5 μM RF in 20 mM PIPES, pH 7.0, 0.8 mM MgCl2, when assaying the RFK activity, and 50 μM ATP, 10 μM FMN in 20 mM PIPES, pH 7.0, 10 mM MgCl2 when measuring the FMNAT reaction. Each compound was tested at 250 μM (0.5% residual final concentration of DMSO) for each of the two enzymatic reactions. The samples were pre-incubated at 25 °C, the reaction was then initiated by the addition of ∼ 40 nM CaFADS (final concentration) and allowed for 1 min. Finally, the reaction was stopped by boiling the samples for 5 min and the denatured protein was eliminated through centrifugation. The transformation of RF into FMN and FAD (RFK activity) and of FMN into FAD (FMNAT activity) was evaluated through flavins separation by HPLC (Waters), as previously described. All the experiments were performed in triplicate. To evaluate the potency of compounds as inhibitors, we took advantage of the decrease in quantum yield of fluorescence when FMN is transformed into FAD, which allows to follow such transformation in a continuous system. Measurements were carried out using a microplate reader Synergy HT multimode plate reader (Biotek) with BRAND 96-well plates pure Grade. Reaction mixtures contained 5 μM RF or FMN, and 50 μM ATP in 20 mM PIPES, pH 7.0, 10 mM MgCl2, and the inhibitor compound in a 5-250 μM concentration range (2% residual final concentration of DMSO). Reactions were initiated through addition of 0.4 μM CaFADS, being the final reaction volume 100 μL. Flavin fluorescence (excitation at 440 nm and emission at 530 nm) was registered at 25 °C, every 50 s during 15 min. The fluorescence change per time unit (ΔF/Δt) was calculated as the slope of the resulting fluorescence decays recorded between 0 and 6 min (linear decay of the fluorescence). Controls which contained the reaction mixture without the enzyme and without any potential CaFADS inhibitory compound were included in the assay and referred as the 0% and 100% of enzymatic activity, respectively. IC50 was calculated as the concentration of compound required for a 50% inhibition of the enzymatic activity.

[1] = target: T2, RFK+FMNAT CaFADS activities (Corynebacterium ammoniagenes, UniProt Q59263); assay: Inhibition of the RFK+FMNAT activity of CaFADS; assay type: biochemical; conditions: 25 °C; for RFK+FMNAT % Res. act. 250 μM: residual activity at 250 μM of compound; for IC50: kinetic measurements, 20 mM PIPES pH 7.0, 10 mM MgCl2, 2% DMSO
T2 construct: made in house; host or cells: Escherichia coli BL21(DE3)
T2 sequence (Q59263 whole entry): as above
Description: as §1

C. ammoniagenes = assay: MIC, resazurin broth microdilution; assay type: cell-based, Corynebacterium ammoniagenes; conditions: for MIC: C. ammoniagenes; for MIC (μM) C. ammoniagenes: Table 3
C. glutamicum = assay: MIC, resazurin broth microdilution; assay type: cell-based, Corynebacterium glutamicum; conditions: media BHI
C. diphteriae = assay: MIC, resazurin broth microdilution; assay type: cell-based, Corynebacterium diphteriae
M. tuberculosis = assay: MIC, resazurin broth microdilution; assay type: cell-based, Mycobacterium tuberculosis; conditions: for MIC: M. tuberculosis, media 7H9G-ADC; for MIC (μM) M. tuberculosis: Table 3
E. coli = assay: MIC, resazurin broth microdilution; assay type: cell-based, Escherichia coli; conditions: media LB
L. monocytogenes = assay: MIC, resazurin broth microdilution; assay type: cell-based, Listeria monocytogenes; conditions: media BHI
P. aeruginosa = assay: MIC, resazurin broth microdilution; assay type: cell-based, Pseudomonas aeruginosa; conditions: media MH
S. thyphimurium = assay: MIC, resazurin broth microdilution; assay type: cell-based, Salmonella thyphimurium; conditions: media MH
S. aureus = assay: MIC, resazurin broth microdilution; assay type: cell-based, Staphylococcus aureus; conditions: media MH
CaFADS = target: T3, CaFADS (Corynebacterium ammoniagenes, UniProt Q59263); assay: Differential scanning fluorescence (thermal denaturation) binding to CaFADS; conditions: for Tm shift of CaFADS thermal denaturation: 2 μM CaFADS, compound up to 250 μM; for Kd: from differential scanning fluorescence data fitted to Eq 2, 20 mM PIPES pH 7.0, 10 mM MgCl2, 2% DMSO, n = 3, mean ± SD
T3 construct: made in house; host or cells: Escherichia coli BL21(DE3)
T3 sequence (Q59263 whole entry): as above
Description: Interaction of compounds with CaFADS was evaluated using fluorescence thermal denaturation, on the bases of the shifts in denaturation midpoints of thermal curves of the protein [65]. Denaturations were performed in a Stratagene Agilent Mx3005p qPCR instrument (Santa Clara, US) following SYPR Orange (ThermoFisher Scientific) emission fluorescence (excitation at 492 nm and emission at 610 nm), which greatly increases when this probe binds to protein hydrophobic regions becoming solvent exposed upon thermal unfolding. Solutions containing 2 μM CaFADS with the studied compound in an increasing 5-250 μM concentration range (2% residual final concentration of DMSO) and 5xSYPR Orange in 20 mM PIPES pH 7.0, 10 mM MgCl2, with a 100 μL total volume were dispensed into 96-well microplates (BRAND 96-well plates pure grade™). After an initial 1 min incubation at 25 °C within the equipment, unfolding curves were registered from 25 to 100 °C at 1 °C·min^−1. Control experiments with CaFADS samples with/without DMSO were routinely performed in each microplate. For those compounds shifting midpoint denaturation temperature, Tm, the dissociation constant, Kd, was predicted by fitting the data to the equation [66] ΔTm/Tm=NRTm0/ΔH0ln(1+[L]/Kd), (2) which estimates the extent of the ligand-induced protein stabilization/destabilization. ΔTm=|Tm-Tm0| with Tm0 and Tm being the midpoint denaturation temperatures in the absence and the presence of ligand, respectively, and ΔH0 the unfolding enthalpy of the protein in the absence of ligand.

A549 = assay: MTT cytotoxicity assay; assay type: cell-based; conditions: 24 h
Description: (§2) The (4,5-dimethylthiazol-2-yl)-2,5-diphenyl tetrazolium bromide (MTT) assay was used to determine the effect of the compounds in cell growth and viability of HeLa (ATCC CCL-2) and A549 (ATCC CCL-185) eukaryotic cell lines. Both cell lines were routinely cultured in high-glucose DMEM (Lonza) supplemented with 10% fetal bovine serum, 4 mM glutamine GlutaMAX™ (Gibco) and 1x non-essential amino acids (Gibco), under 5% CO2 at 37 °C in a humidified atmosphere. For the MTT assay, cells were initially seeded in 96-well flat-bottom plates at a density of 10^4 cells per well and cultured for 24 h. Cultures were routinely tested for mycoplasma presence. The compounds were dissolved in fresh culture medium, added in a 4-512 μM concentration range (1% DMSO final concentration), and incubated with the cells for 24 h. Finally, formazan crystals were dissolved with pure DMSO and MTT absorbance was measured at 570 and 650 nm. Untreated cells were included as control of 100% viability. Assays were done in quadruplicate.

HeLa = assay: MTT cytotoxicity assay; assay type: cell-based; conditions: 24 h
Description: as §2

M. smegmatis = assay: MIC, resazurin broth microdilution; assay type: cell-based, Mycobacterium smegmatis; conditions: media 7H9G-ADC
S. pneumoniae = assay: MIC, resazurin broth microdilution; assay type: cell-based, Streptococcus pneumoniae
Mycobacteriumspecies = assay: MIC against Mycobacterium species (S5 Fig legend); assay type: cell-based
[2] = complete viability at lower concentrations
[3] = 4-512 μM range, read-out: IC50 (concentration causing 50% inhibition of cellular viability)

SMILES	FMNAT % Res. act. 250 μM (FMNAT activity of CaFADS) [%]	RFK+FMNAT % Res. act. 250 μM [1] [%]	MIC (C. ammoniagenes; media MH) [µM]	MIC (C. ammoniagenes; media MH+DFO) [µM]	MIC (C. ammoniagenes; media MH+DIP) [µM]	MIC (C. ammoniagenes; media MH+DIP+DFO) [µM]	MIC (C. glutamicum) [µM]	MIC (C. diphteriae; media MH) [µM]	MIC (M. tuberculosis) [µM]	MIC (E. coli) [µM]	MIC (L. monocytogenes) [µM]	MIC (P. aeruginosa) [µM]	MIC (S. thyphimurium) [µM]	MIC (S. aureus) [µM]	Tm shift of CaFADS thermal denaturation (CaFADS)	Kd (CaFADS) [µM]	MIC (C. ammoniagenes; media BHI) [µM]	MIC (C. diphteriae; media BHI) [µM]	MIC (M. smegmatis) [µM]	MIC (S. pneumoniae; media BHI) [µM]	further results
Cc1c(N=CN(C(=O)c2ccccc2)c2cccc([N+](=O)[O-])c2C)cccc1[N+](=O)[O-] [Compound C7, N1-(2-methyl-3-nitrophenyl)-N1-{[(2-methyl-3-nitrophenyl)imino]methyl}benzamide]	>95	82 ± 7	> 256	> 256	> 256	> 256	> 256	> 256	> 256	> 256	> 256	> 256	> 256	> 256	–	–	–	–	–	–	–
O=C(O)c1ccccc1C(=O)NC1CCN(c2nccc(C(F)(F)F)n2)CC1 [Compound C18, 2-[({1-[4-(trifluoromethyl)pyrimidin-2-yl]piperidin-4-yl}amino)carbonyl]benzoic acid]	–	–	> 256	–	> 256	256 (≈ 101 µg/mL)	> 256	32 (≈ 12.6 µg/mL)	> 256	> 256	64 (≈ 25.2 µg/mL)	> 256	> 256	256 (≈ 101 µg/mL)	shifted it to lower values	3 ± 0.9	–	–	–	–	IC50 (FMNAT activity of CaFADS): 143 ± 4 µM; IC50 [1]: 147 ± 4 µM; concentration range with moderate cytotoxicity (A549; [2]): 256 to 512 µM; concentration range with moderate cytotoxicity (HeLa; [2]): 256 to 512 µM
CSC(=NS(=O)(=O)c1c(C)noc1C)NNC(=O)Nc1ccc(Cl)cc1 [Compound C9, N1-(4-chlorophenyl)-2-[{[(3,5-dimethylisoxazol-4-yl)sulfonyl]imino}(methylthio)methyl]hydrazine-1-carboxamide]	56 ± 6	76 ± 3	> 256	> 256	> 256	> 256	> 64	> 256	> 256	> 64	> 64	> 256	> 256	> 256	more than 3 degrees	6.4 ± 1.2	> 64	> 64	> 256	> 256	MIC (S. pneumoniae; media MH): > 256 µM
CC1(C(=O)O)CCC2C(CCC3CC(O)CCC32C)C1C=C1Nc2ccccc2C1=O (stereo not shown) [Compound C3, 7-hydroxy-2,4b-dimethyl-1-[(3-oxo-2,3-dihydro-1H-2-indolyliden)methyl]perhydro-2-phenanthrenecarboxylic acid]	48 ± 3	48 ± 5	> 256	> 256	> 256	> 256	> 64	> 256	256 (≈ 108 µg/mL)	> 64	> 64	> 256	> 256	> 256	shifted it to lower values	18 ± 8	> 64	> 64	> 256	256 (≈ 108 µg/mL)	IC50 (FMNAT activity of CaFADS): 238 ± 7 µM; IC50 [1]: 248 ± 3 µM; MIC (μM) C. ammoniagenes (C. ammoniagenes): >256 µM; MIC (μM) M. tuberculosis (M. tuberculosis): 256 µM (≈ 108 µg/mL); MIC (S. pneumoniae; media MH): 256 µM (≈ 108 µg/mL); MIC Mycobacterium species (Mycobacteriumspecies): lower than 256 μM
COc1ccc(C(NC(=O)CCC(NC(=O)OCc2ccccc2)C(=O)O)c2ccc(OC)cc2)cc1 (stereo not shown) [Compound C2, 2-{[(benzyloxy)carbonyl]amino}-5-{[di(4-methoxyphenyl)methyl]amino}-5-oxopentanoic acid]	>95	88 ± 2	128 (≈ 64.8 µg/mL)	128 (≈ 64.8 µg/mL)	128 (≈ 64.8 µg/mL)	64 (≈ 32.4 µg/mL)	16 (≈ 8.1 µg/mL)	128 (≈ 64.8 µg/mL)	256 (≈ 130 µg/mL)	> 64	> 64	> 256	> 256	128 (≈ 64.8 µg/mL)	–	–	64 (≈ 32.4 µg/mL)	64 (≈ 32.4 µg/mL)	256 (≈ 130 µg/mL)	256 (≈ 130 µg/mL)	MIC C. ammoniagenes (C. ammoniagenes; S5 Fig legend, medium not stated): 64 µM (≈ 32.4 µg/mL); MIC (μM) C. ammoniagenes (C. ammoniagenes): 128 µM (≈ 64.8 µg/mL); MIC (μM) M. tuberculosis (M. tuberculosis): 256 µM (≈ 130 µg/mL); MIC (S. pneumoniae; media MH): > 256 µM; MIC Mycobacterium species (Mycobacteriumspecies): lower than 256 μM; IC50 (A549; [3]): > 512 µM; IC50 (HeLa; [3]): > 512 µM
